# Reference: PubChem BioAssay AID1615 (Sanford-Burnham Center for Chemical Genomics, 2009)
# Test system: aqueous buffer solubility, UV absorbance, 18 h equilibrium
# Assay: aqueous buffer solubility of compounds, late-stage follow-up, ADME assay, biophysical, UV absorbance, pH 5.0, 6.2, 7.4 (AID 1615)
# Settings: at 300 µM, stronger effect = higher value
smiles,measurement,setting,value
C=CCn1c(SCC(=O)c2ccc(O)c(O)c2)nnc1-c1ccccc1OC,solubility,,18 µg/mL
same,solubility,measured here: solubility at pH 5.0,8.4 µg/mL
same,solubility,measured here: solubility at pH 6.2,8.4 µg/mL
